Measured values from patent US20080280891A1, “Anti-cancer agents and uses thereof” (Locus Pharmaceuticals, Inc., priority 2006, published 2008).

Tests used:
Type in all cases: cell-based
[1] = system: Hela cells; test: Cell viability assay (WST-1), Hela cells; details: Homo sapiens, HeLa, WST-1, 48-72 hrs, 0.5% fetal calf serum
Protocol: (§1) Jurkat and Hela cells were cultured in RPMI and EMEM media, respectively, containing 0.5% fetal calf serum. Cells were plated in a volume of 100 μL in a 96 well format. Test compounds were included in the culture media at concentrations ranging from 1 nM to 10 μM for a period of 48-72 hrs. Cell viability was determined using the WST-1 calorimetric mitochondrial reduction assay. Briefly, 10 μL of WST-1 reagent was included in the culture well for a period of 1 to 4 hrs. The WST-1 reaction was read on a multiwell spectrophotometer as the difference in the absorbance between 450 nm and 600 nm (baseline). Absorbance was proportional to the number of living cells in the culture well. Concentration response curves and IC50 values were calculated using GraphPAD Prism graphing and curve fitting program.

[2] = system: MCF-7 breast cancer cells; test: Cell cycle assay (Example 163), G2/M block in MCF-7 cells; details: Homo sapiens, MCF7, 24 h, flow cytometry (PI), Table 2
Protocol: MCF-7 breast cancer cells and Jurkat T-cell leukemic cells were grown (and maintained) in EMEM and RPMI media, respectively, containing 10% fetal calf serum.
Cells were allowed to adhere for 24 hrs. After adherence, cell culture media was changed to that containing 0.5% FCS. Thirty minutes post-media change, test compounds were added at a concentration of 1 μM. Twenty-fours after test agent addition, cells were analyzed for cell cycle status as described below.
Cell cycle status was analyzed by flow cytometry. Briefly, cells were collected and washed with FACs buffer (Pharmingen) and resuspended and fixed in 1 mL of 80% ethanol for 1 hr. Cells were washed with FACs buffer and resuspended in propidium iodide(PI)/RNase staining buffer (Pharmingen). PI is a fluorescent dye that labels nucleic acids such as DNA. The fluorescence within a cell (in the presence of PI) is proportional to the amount of DNA within a cell. The cell content of DNA is an indices of status in the cell cycle. […] Cells in the S phase have DNA content that lies between these extremes.
For testing of cell cycle effects of test agents the percentage of cells within the G1 and G2/M phase were measured.

[3] = system: Jurkat T-cell leukemic cells; test: Cell cycle assay (Example 163), G2/M block in Jurkat cells; details: Homo sapiens, Jurkat, 24 h, flow cytometry (PI), Table 2
[4] = system: Jurkat cells; test: Cell viability assay (WST-1), Jurkat cells; details: Homo sapiens, WST-1, 48-72 hrs, 0.5% fetal calf serum
Protocol: as §1

Row | IC50 [1] | IC50 [4] | SMILES | activation at 1 µM [2] | activation at 0.1 µM [3]
1 | 1000 to 30000 nM | > 3000 nM | Oc1cc(Nc2cccnc2)cc(-c2ccccc2Cl)c1 [2′-Chloro-5-(pyridin-3-ylamino)-biphenyl-3-ol] | < 50% | < 50%
2 | 1000 to 30000 nM | 1 to 999 nM | Nc1ccc(C(=O)c2cc(O)cc(-c3cccc4[nH]ccc34)c2)cn1 [(6-Amino-pyridin-3-yl)-[3-hydroxy-5-(1H-indol-4-yl)-phenyl]-methanone] | ≥ 50% | < 50%
3 | 1000 to 30000 nM | > 3000 nM | N#Cc1cnc(Nc2cc(O)cc(-c3cccc4[nH]ccc34)c2)cn1 [5-[3-Hydroxy-5-(1H-indol-4-yl)-phenylamino]-pyrazine-2-carbonitrile] | ≥ 50% | < 50%
4 | 1000 to 30000 nM | 1000 to 30000 nM | COc1ccc(Cc2c(O)cc(Nc3cccnc3)cc2-c2cccc3sccc23)cc1 [3-benzo[b]thiophen-4-yl-2-(4-methoxy-benzyl)-5-(pyridin-3-ylamino)-phenol] | < 50% | ≥ 50%
5 | 1000 to 30000 nM | 1 to 999 nM | Oc1cc(Nc2cccnc2)cc(-c2cnc3ccccc3c2)c1 [3-(Pyridin-3-ylamino)-5-quinolin-3-yl-phenol] | < 50% | < 50%
